Test [1] has as its target T1, hCB2 (Homo sapiens, UniProt P34972).
T1 construct: expressed in transfected cells; host or cells: HEK Flp-in
Description: Radioligand competition binding with [3H]-CP 55,940 on hCB2-expressing HEK membranes. Conditions: for hCB2 displacement of [3H]-CP 55,940 in 10 μM screen (in words): 10 μM heterologous competition screen, cut-off 60%; for inhibition at 10 µM: 1 h, read-out: CB2 binding extent at 10 μM (%) (±SEM). (In a radioligand displacement assay an active substance lowers the binding of a labelled ligand.)

Another test has as its target T2, hCB1 (Homo sapiens, UniProt P21554).
T2 construct: expressed in transfected cells; host or cells: HEK (membranes)
Description: Radioligand competition binding screen with [3H]-CP 55,940 on hCB1-expressing HEK membranes. The settings on record: 10 μM compound; displacement of 0.75 nM [3H]-CP 55,940.

Test [2] has as its target T1, hCB2. The test is described as follows: hCB2 internalisation assay (immunocytochemistry of surface receptor), HEK Flp-in hCB2 cells. It is filed as cell-based. More on the design: Emax: dose or concentration left out as unconfirmed.
The target in test [3] is T1, hCB2. The test is described as follows: pERK AlphaLISA assay, HEK Flp-in hCB2 cells. It is filed as cell-based. In general terms: Bead proximity is the source of the signal in Alpha formats.
Test [4] concerns the target T1, hCB2. Description: Comparison of efficacy/potency and operational-model bias analysis between hCB2 pathways, reference CP 55,940. The format is cell-based.
A further test relates to HEK Flp-in wt cells. The test is described as follows: CAMYEL cAMP assay in HEK Flp-in wt cells (non-hCB2-mediated effects). It is filed as cell-based, human. Conditions: HEK Flp-in wt. (In general: Cyclic AMP is a second messenger, typically raised through Gs and lowered through Gi signalling.)
For test [5], the target named is T1, hCB2. Description: Real-time CAMYEL BRET cAMP assay, forskolin-stimulated HEK Flp-in hCB2 cells. It is filed as cell-based. The method, then: Cellular cAMP levels were measured using a real-time BRET biosensor (CAMYEL) as previously described ([Cawston et al., 2013]). In brief, cells were seeded in 10 cm dishes one day prior to transfection. The medium was then replaced and cells transfected with 5 μg of pcDNA3L-His-CAMYEL (ATCC, Manassas, VA, United States) using linear PEI (MW 25 kDa; Polysciences, Warrington, PA, United States) with a DNA:PEI ratio of 1:6. Approximately 24 h after transfection, cells were trypsinised and re-plated in poly-D-lysine treated white 96-well plates (Corning), at a density of 5–6 × 10^4 cells per well. For experiments involving pertussis toxin (PTX; Sigma-Aldrich) pre-treatment, cells were seeded in half the usual volume of medium, and then ∼5 h later, 2× concentrated PTX or vehicle (50% glycerol, […] Tris–HCl pH 7.5, 10 mM glycine, 500 mM NaCl) were prepared in medium and added to the existing plating medium (giving rise to a final PTX concentration of 100 ng mL^-1). Approximately 24 h after plating (or 16–20 h after applying PTX/vehicle in experiments involving PTX treatment), cells were washed once with Hank’s Balanced Salt Solution (HBSS, Thermo Fisher Scientific, catalogue #14025-134), and then equilibrated for 30 min in HBSS supplemented with 1 mg mL^-1 BSA. Coelenterazine h (final concentration 5 μM; NanoLight Technologies, Pinetop, AZ, United States) was added to each well and incubated for 5 min. Forskolin was added (final concentration 5 μM) and incubated for 6 min (allowing enough time for the induced cAMP increase to plateau), prior to vehicle/drug addition. All drugs and reagents were prepared in HBSS supplemented with 1 mg mL^-1 BSA. SR 144528 was a generous gift from Roche (Basel, Switzerland).
Assays were carried out in technical duplicate. Emissions were detected at 460 nm (Rluc) and 535 nm (YFP) with either a LUMIstar® Omega luminometer (BMG Labtech, Ortenberg, Germany) or CLARIOstar® (BMG Labtech). BRET ratios (535 nm emissions/460 nm emissions, where an increase in ratio corresponds to a decrease in cAMP) were normalised to pre-forskolin reads (i.e., with coelenterazine h present) to remove any variability present prior to addition of forskolin and drug/vehicle. A Lowess curve (GraphPad Prism) was fitted to individual technical replicates within an assay so that cAMP signalling data could be extrapolated from any time point as opposed to only those that were empirically measured (typically every 30–60 s). Data were normalised to matched vehicle (0%) and forskolin (100%) treatments, allowing compilation of data from independent experiments.

[6] abbreviates: 10 μM compound, displacement of 0.5 nM [3H]-CP 55,940.
Where [7] appears, read: operational model transduction ratio.
[8] abbreviates: 10^ΔΔlogR, relative to CP 55,940.
[9] abbreviates: relative to reference ligand CP 55,940.

T1 sequence (P34972 whole entry): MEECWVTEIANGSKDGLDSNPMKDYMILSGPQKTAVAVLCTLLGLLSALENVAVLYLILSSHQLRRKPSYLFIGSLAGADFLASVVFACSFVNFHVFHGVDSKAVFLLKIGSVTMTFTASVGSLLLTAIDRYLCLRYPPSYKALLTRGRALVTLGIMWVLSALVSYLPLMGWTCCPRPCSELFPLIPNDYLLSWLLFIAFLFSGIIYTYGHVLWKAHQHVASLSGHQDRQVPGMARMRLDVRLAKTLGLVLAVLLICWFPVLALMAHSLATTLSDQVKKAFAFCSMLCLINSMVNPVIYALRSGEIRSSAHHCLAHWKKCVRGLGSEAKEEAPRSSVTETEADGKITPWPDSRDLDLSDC
T2 sequence (P21554 whole entry): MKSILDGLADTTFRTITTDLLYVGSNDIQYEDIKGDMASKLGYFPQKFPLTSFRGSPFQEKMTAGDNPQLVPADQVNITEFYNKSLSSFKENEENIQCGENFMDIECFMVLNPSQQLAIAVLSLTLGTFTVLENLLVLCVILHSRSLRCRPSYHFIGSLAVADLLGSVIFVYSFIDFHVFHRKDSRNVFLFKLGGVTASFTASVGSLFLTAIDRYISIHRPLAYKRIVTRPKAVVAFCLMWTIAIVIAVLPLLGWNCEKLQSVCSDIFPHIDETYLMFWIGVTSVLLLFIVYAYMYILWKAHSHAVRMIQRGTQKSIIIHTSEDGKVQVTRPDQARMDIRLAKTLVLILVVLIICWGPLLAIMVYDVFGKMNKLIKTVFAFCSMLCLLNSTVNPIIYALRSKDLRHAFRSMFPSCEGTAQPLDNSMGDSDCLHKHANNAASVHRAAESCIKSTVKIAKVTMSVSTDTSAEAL

As to `CCOc1nc(NC2CCCC2)nc(N2CCN(CCOCCOCCN)CC2)n1` [Compound 6, 4-(4-(2-(2-(2-Aminoethoxy)Ethoxy)Ethyl)Piperazin-1-yl)-N-Cyclopentyl-6-Ethoxy-1,3,5-Triazin-2-Amine], the “hCB2 displacement of [3H]-CP 55,940 in 10 μM screen (in words)” value (“hCB2 displacement” for short) at hCB2 [1] was “failed to displace, or barely displaced”. Further, the inhibition at 10 µM at hCB2 [1] (setting [6]) was found to be 15.6%.
In the case of `CCOc1nc(Cl)nc(NC2CCCC2)n1` [Compound 1, 4-Chloro-N-cyclopentyl-6-ethoxy-1,3,5-triazin-2-amine], on hCB2 [1], the “hCB2 displacement” value is on record as “failed to displace, or barely displaced”. Further, the inhibition at 10 µM on hCB2 [1] (setting [6]) is -8.1%.
Turning to `CCOc1nc(NC2CCCC2)nc(N2CCNCC2)n1` [Compound 2, N-cyclopentyl-4-ethoxy-6-(piperazin-1-yl)-1,3,5-triazin-2-amine], the “hCB2 displacement” value at hCB2 [1] was “failed to displace, or barely displaced”. Besides, the inhibition at 10 µM on hCB2 [1] (setting [6]) stood at 5.8%.
The matching figures for `CCOc1nc(NC23CC4CC(CC(C4)C2)C3)nc(N2CCN(CCN)CC2)n1` [Compound 11, N-(Adamantan-1-yl)-4-(4-(2-Aminoethyl)Piperazin-1-yl)-6-Ethoxy-1,3,5-Triazin-2-Amine]: “moderate binders” and 40.1%.
The Emax is the greatest response seen or fitted, relative to the assay's reference. For `CCCCCCC(C)(C)c1ccc([C@@H]2C[C@H](O)CC[C@H]2CCCO)c(O)c1` [CP 55,940, reference compound], at hCB1, the “CB1 binding extent at 10 μM (%) (±SEM)” value is 100.0 (0.0) %. For the same compound, the “Starting surface hCB2 internalised” value at hCB2 [2] (1 h stimulation) was approximately 66%. For the same compound, the “logR [log(τ/KA)] (±SEM) Internalisation” value at hCB2 [2] (setting [7]) is 8.76 (0.1). Moreover, the Emax at hCB2 [2] (read-out: Internalisation (1 h) Emax (±SEM)) is -65.1%. Also, the “pERK potency lower than that for cAMP” value on hCB2 [3] was “approximately 0.5 log unit”. In addition, the “pERK potency lower than affinity” value on hCB2 [3] (EC50 versus Kd) is on record as approximately 10 fold. For the same compound, the “logR [log(τ/KA)] (±SEM) pERK” value at hCB2 [3] (setting [7]) was 8.05 (0.03). Further, the “Time of maximal pERK response” value at hCB2 [3] (time course experiment) is 4 min. At hCB2 [4] (setting [8]), the “Internalisation – pERK Bias factor” value was found to be 1.0, the “cAMP – internalisation Bias factor” value is reported as 1.0 and the “cAMP – pERK Bias factor” value was determined as 1.0. Moreover, at hCB2 [4] (setting [9]), the “Internalisation – pERK ΔΔlogR (±SEM)” value was “–0.02 (0.11)”, the “cAMP – internalisation ΔΔlogR (±SEM)” value is recorded as 0.01 (0.10) and the “cAMP – pERK ΔΔlogR (±SEM)” value is listed as 0.00 (0.04). In addition, the “Non-hCB2-mediated effects on cAMP (in words)” value in the test with HEK Flp-in wt cells was “least pronounced non-hCB2 signalling profile”. The “logR [log(τ/KA)] (±SEM) cAMP” value on hCB2 [5] (setting [7]) is 8.52 (0.02). Further, on hCB2 [5] (pEC50 versus pKd), the “cAMP potency lower than binding affinity” value is listed as approximately 0.4 log units. Moreover, on hCB2 [5] (read-out: cAMP (5 min) Emax (±SEM)), the Emax was -41.7%. In addition, on hCB2 [1] (setting [6]), the “CB2 binding extent at 10 μM (%) (±SEM)” value is given as 100.0 (0.0) %.

The values are drawn from article PMC6256112, “Cannabinoid Receptor 2 Signalling Bias Elicited by 2,4,6-Trisubstituted 1,3,5-Triazines” (Frontiers in Pharmacology, 2018).
